Source: patent US11426375B2, “Substituted bisphenyl butanoic ester derivatives as NEP inhibitors” (NOVARTIS AG, priority 2019, dated 2022)

Tests used:
[1] = set-up: species or system Cynomolgus Monkeys; details: cynomolgus monkey, in vivo, po, 10 mg/kg
Experimental: A cross-over study design consisting of two groups with two animals per group was conducted to examine the pharmacokinetic properties of compound I-1 of the present disclosure.
Compound I-1 and AHU377 were administered to each group as follows: compound I-1 on Day 0 followed by AHU377 on Day 2 (Group 1), AHU377 on Day 0 followed by compound I-1 on Day 2 (Group 2). Each animal received a single 10 mg/kg (5 ml/kg) oral gavage dose of the specified study drug on the specified day. The animals were 2.5 to 3.5 years of age and weighed between 3.1 and 4.3 kg at the beginning of the study. Both compounds were formulated in 0.5% methylcellulose (400 cp) and 0.1% Tween 80 (w,v) in water. Blood samples for pharmacokinetics analysis were collected at t=0, 0.25, 0.5, 1, 2, 4, 8, 24 and 48 hours post dose on Day 0 and Day 2. Plasma was prepared by collecting whole blood samples into tubes containing K2EDTA and NaF (final concentrations: ˜1 mg/mL (K2EDTA) and ˜2 mg/mL (NaF)). These tubes were kept in an ice bath prior to centrifugation at approximately 2,000 rcf for 10 minutes at approximately 5° C. To each resultant plasma sample (target volume 200 μL), 4 μL of 50% phosphoric acid (v/v) was added.
[^13C4]-LBQ657 was added as an internal standard to the pharmacokinetic (PK) samples and calibration standards prior to analysis by LC-MS/MS. The LC-MS system consisted of an API6500+ mass spectrometer coupled to an Agilent 1290 HPLC system equipped with a CTC Pal autosampler. The mass spectrometer was operated in the positive ion mode.

[2] = assay type: physicochemical; details: pH 2
Experimental: It was stable at pH of 4.7 and pH of 6.8 up to 70° C. for 3 days.

SMILES: CCOC(=O)[C@H](C)C[C@@H](Cc1ccc(-c2ccccc2)cc1)NC(=O)CCC(=O)N[C@@H](CC(C)C)C(=O)O [Compound I-1, (4-(((2S,4R)-1-([1,1′-biphenyl]-4-yl)-5-ethoxy-4-methyl-5-oxopentan-2-yl)amino)-4-oxobutanoyl)-L-leucine]
- compound I-1 concentrations in plasma [1]: below the lower limit of quantitation
- tolerability [1]: well tolerated
- relative bioavailability compared to AHU377 based on AUC values ([1]; male): 72%
- relative bioavailability compared to AHU377 based on Cmax values ([1]; male): 30%
- degradation in solution ([2]; 1 day): 18.27%
- solution stability under acidic conditions [2]: unstable
